The subject of this test is P388 leukemia ip, CD2F1 mice, survival T/C. The test is described as follows: NCI In Vivo Anticancer Drug Screen. Data for tumor model P388 Leukemia (intraperitoneal) in CD2F1 (CDF1) mice. The settings on record: endpoint: median survival time, higher = longer survival. In a few lines:
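Mice carrying the transplanted tumor received test compound or vehicle. Survival was recorded in each group, and the value is the treated-group measurement divided by that of the vehicle-treated control group.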

[1] abbreviates: dose: 50.0 mg/kg/injection, schedule: Q01DX005 (ip), vehicle: saline with Tween-80.
Where [2] appears, read: dose: 100.0 mg/kg/injection, schedule: Q01DX005 (ip), vehicle: saline with Tween-80.
The mark [3] stands for this setting: dose: 200.0 mg/kg/injection, schedule: Q01DX005 (ip), vehicle: saline with Tween-80.
The mark [4] stands for this setting: dose: 12.5 mg/kg/injection, schedule: Q04DX002 (ip), vehicle: Klucel (hydroxypropylcellulose) (HPC).
The mark [5] stands for this setting: dose: 25.0 mg/kg/injection, schedule: Q04DX002 (ip), vehicle: Klucel (hydroxypropylcellulose) (HPC).

For 22 molecules, T/C results are on record in PubChem BioAssay AID330 (DTP/NCI, 2004).

“And” between values parts separate entries of the source, which are not always exact repeats. Equal values may be shown once. Inconclusive results and toxic doses are left out.

On to `COc1ccc(/C=C2\CCOc3ccc(C)cc3C2=O)cc1`, for which the T/C by setting is: (dose: 100.0 mg/kg/injection, schedule: Q04DX003 (ip), vehicle: Klucel (hydroxypropylcellulose) (HPC)) 94 % of control; (dose: 200.0 mg/kg/injection, schedule: Q04DX003 (ip), vehicle: Klucel (hydroxypropylcellulose) (HPC)) 96 % of control; (dose: 400.0 mg/kg/injection, schedule: Q04DX003 (ip), vehicle: Klucel (hydroxypropylcellulose) (HPC)) 102 % of control.

As for `COc1cc(OC)c(C2CC(C)(OC)Oc3cc4c(cc32)OCO4)c(OC)c1` (stereo unspecified), the T/C by setting is: under setting [1], 103 % of control; under setting [2], 97 % of control; under setting [3], 90 % of control.

`CC(=O)OC1CCC2(C)C(C1)CC(OC(C)=O)C1C2CC(OC(C)=O)C2(C)C(C(C)CC(=O)C(=O)c3ccccc3)CCC12` (stereo unspecified): the T/C (dose: 50.0 mg/kg/injection, schedule: Q01DX009 (ip), vehicle: saline with Tween-80) was 103 % of control; the T/C (dose: 100.0 mg/kg/injection, schedule: Q01DX009 (ip), vehicle: saline with Tween-80) was 94 % of control; the T/C (dose: 200.0 mg/kg/injection, schedule: Q01DX009 (ip), vehicle: saline with Tween-80) was 98 % of control.

In the case of `CCOC(=O)C1CN2C(=O)CCC2C1=O` (stereo unspecified), the T/C (dose: 60.0 mg/kg/injection, schedule: Q01DX005 (ip), vehicle: saline) was 104 % of control; the T/C (dose: 120.0 mg/kg/injection, schedule: Q01DX005 (ip), vehicle: saline) was 103 % of control; the T/C (dose: 240.0 mg/kg/injection, schedule: Q01DX005 (ip), vehicle: saline) was 103 % of control.

Consider `CCC(=O)Nc1ccc(N=NN(C)C)cc1`, for which the T/C by setting is: (dose: 6.25 mg/kg/injection, schedule: Q04DX002 (ip), vehicle: Klucel (hydroxypropylcellulose) (HPC)) 97 % of control; under setting [4], 106 % of control; under setting [5], 100 % of control and 109 % of control.

Take `O=C/C(=C\O)NC(=O)c1ccccc1C(=O)O`: the T/C reads like this: (dose: 60.0 mg/kg/injection, schedule: Q01DX005 (ip), vehicle: Klucel (hydroxypropylcellulose) (HPC)) 99 % of control; (dose: 120.0 mg/kg/injection, schedule: Q01DX005 (ip), vehicle: Klucel (hydroxypropylcellulose) (HPC)) 99 % of control; (dose: 240.0 mg/kg/injection, schedule: Q01DX005 (ip), vehicle: Klucel (hydroxypropylcellulose) (HPC)) 92 % of control.

On to `c1ccc(CCc2cccc3ccccc23)nc1`, for which the T/C runs as follows: under setting [1], 98 % of control; under setting [2], 96 % of control; under setting [3], 100 % of control.

As to `CC1(C)OC(=O)NC1c1ccccc1` (stereo unspecified), the T/C reads like this: (dose: 6.25 mg/kg/injection, schedule: Q01DX009 (ip), vehicle: saline with Tween-80) 100 % of control; (dose: 12.5 mg/kg/injection, schedule: Q01DX009 (ip), vehicle: saline with Tween-80) 99 % of control; (dose: 25.0 mg/kg/injection, schedule: Q01DX009 (ip), vehicle: saline with Tween-80) 117 % of control.

`O=c1cc(O)nc2cn[nH]n12`: the T/C by setting is: (dose: 50.0 mg/kg/injection, schedule: Q01DX009 (ip), vehicle: saline) 99 % of control; (dose: 100.0 mg/kg/injection, schedule: Q01DX009 (ip), vehicle: saline) 90 % of control; (dose: 200.0 mg/kg/injection, schedule: Q01DX009 (ip), vehicle: saline) 101 % of control.

Regarding `CCCCCC(O)C1C(=O)OC(C)C(O)/C=C/C=C/C=C/C=C\C=C(\C)C(O)CC(O)CC(O)CC(O)CC(O)CC(O)CC1O` (stereo unspecified), the T/C runs as follows: (dose: 10.0 mg/kg/injection, schedule: Q04DX003 (ip), vehicle: other) 104 % of control; (dose: 20.0 mg/kg/injection, schedule: Q04DX003 (ip), vehicle: other) 95 % of control; under setting [1], 108 % of control; under setting [2], 107 % of control; under setting [3], 103 % of control.

With `O=C(O)c1cc(=O)c2c(OCC(O)COc3cccc4oc(C(=O)O)cc(=O)c34)cccc2o1.[Cu+2]`, the T/C reads like this: under setting [4], 99 % of control; under setting [5], 96 % of control; (dose: 50.0 mg/kg/injection, schedule: Q04DX002 (ip), vehicle: Klucel (hydroxypropylcellulose) (HPC)) 95 % of control.

For `O=C1CN(CCCN2CCOCC2)CC(=O)N2CCCCN12`, the T/C runs as follows: (dose: 50.0 mg/kg/injection, schedule: Q01DX005 (ip), vehicle: saline) 100 % of control; (dose: 100.0 mg/kg/injection, schedule: Q01DX005 (ip), vehicle: saline) 105 % of control; (dose: 200.0 mg/kg/injection, schedule: Q01DX005 (ip), vehicle: saline) 102 % of control.

Take `Nc1ccc2ccc3ccc(N)nc3c2n1`: the T/C (dose: 60.0 mg/kg/injection, schedule: Q01DX005 (ip), vehicle: saline with Tween-80) was 103 % of control and the T/C (dose: 120.0 mg/kg/injection, schedule: Q01DX005 (ip), vehicle: saline with Tween-80) was 91 % of control.

Take `CCOC(=O)/C=C(\C)Nc1cccc2c(N/C(C)=C/C(=O)OCC)cccc12`: the T/C under setting [1] is 105 % of control, the T/C under setting [2] was 100 % of control and the T/C under setting [3] was 98 % of control.

In the case of `CCCNC(=O)OCc1cnc2ccc(OC)cc2c1COC(=O)NCCC`, the T/C (dose: 50.0 mg/kg/injection, schedule: Q01DX005 (ip), vehicle: Klucel (hydroxypropylcellulose) (HPC)) is 96 % of control; the T/C (dose: 100.0 mg/kg/injection, schedule: Q01DX005 (ip), vehicle: Klucel (hydroxypropylcellulose) (HPC)) was 96 % of control; the T/C (dose: 200.0 mg/kg/injection, schedule: Q01DX005 (ip), vehicle: Klucel (hydroxypropylcellulose) (HPC)) was 93 % of control.

Regarding `N#C[C@@H]1C2C=CC(CC2)[C@H]1C#N`, the T/C is, setting by setting: (dose: 1.25 mg/kg/injection, schedule: Q01DX009 (ip), vehicle: saline with Tween-80) 100 % of control; (dose: 1.25 mg/kg/injection, schedule: Q04DX003 (ip), vehicle: saline with Tween-80) 91 % of control; (dose: 2.5 mg/kg/injection, schedule: Q01DX009 (ip), vehicle: saline with Tween-80) 112 % of control; (dose: 2.5 mg/kg/injection, schedule: Q04DX003 (ip), vehicle: saline with Tween-80) 104 % of control; (dose: 5.0 mg/kg/injection, schedule: Q04DX003 (ip), vehicle: saline with Tween-80) 91 % of control.

Turning to `CS\C(N)=N/N=C/C(C)=N/N=C(/N)SC`, the T/C was 101 % of control (dose: 50.0 mg/kg/injection, schedule: Q04DX002 (ip), vehicle: saline with Tween-80); 100 % of control (dose: 100.0 mg/kg/injection, schedule: Q04DX002 (ip), vehicle: saline with Tween-80); 100 % of control (dose: 200.0 mg/kg/injection, schedule: Q04DX002 (ip), vehicle: saline with Tween-80).

`Cc1ccc(N2C(=O)CCSC2=S)cc1Br`: the T/C was 103 % of control (dose: 50.0 mg/kg/injection, schedule: Q01DX009 (ip), vehicle: suspension in saline); 107 % of control (dose: 100.0 mg/kg/injection, schedule: Q01DX009 (ip), vehicle: suspension in saline); 107 % of control (dose: 200.0 mg/kg/injection, schedule: Q01DX009 (ip), vehicle: suspension in saline).

`Cc1c(O)/c(=C\O)c2nc3c(=O)ccc(C(=O)NCCN(C)C)c3[nH]c2c1=O`: the T/C by setting is: (dose: 6.25 mg/kg/injection, schedule: Q01DX005 (ip), vehicle: other) 117 % of control; (dose: 7.5 mg/kg/injection, schedule: Q03HX015 (ip), vehicle: water) 160 % of control; (dose: 12.5 mg/kg/injection, schedule: Q01DX005 (ip), vehicle: other) 120 % of control; (dose: 15.0 mg/kg/injection, schedule: Q03HX015 (ip), vehicle: water) 177 % of control; (dose: 50.0 mg/kg/injection, schedule: Q01DX005 (ip), vehicle: other) 123 % of control.

`Cc1c2cc[n+](C)cc2c(C)c2c1[nH]c1ccc(O)c(-[n+]3ccccc3)c12`: the T/C is 113 % of control (dose: 2.5 mg/kg/injection, schedule: Q04DX003 (ip), vehicle: saline) and 111 % of control (dose: 5.0 mg/kg/injection, schedule: Q04DX003 (ip), vehicle: saline).

Regarding `CCCCCCC(=O)CCCCCCCCCCCCC(=O)OC`, the T/C is, setting by setting: (dose: 12.5 mg/kg/injection, schedule: Q04DX003 (ip), vehicle: saline with Tween-80) 100 % of control; (dose: 25.0 mg/kg/injection, schedule: Q04DX003 (ip), vehicle: saline with Tween-80) 100 % of control; (dose: 50.0 mg/kg/injection, schedule: Q04DX003 (ip), vehicle: saline with Tween-80) 100 % of control.

As to `COc1cc2c3c(c1)-c1c(ccc(OC)c1O)CC3N(C)CC2` (stereo unspecified), the T/C (dose: 6.25 mg/kg/injection, schedule: Q04DX003 (ip), vehicle: DMSO) was 101 % of control; the T/C (dose: 12.5 mg/kg/injection, schedule: Q04DX003 (ip), vehicle: DMSO) is 101 % of control; the T/C (dose: 25.0 mg/kg/injection, schedule: Q04DX003 (ip), vehicle: DMSO) is 100 % of control; the T/C (dose: 50.0 mg/kg/injection, schedule: Q04DX003 (ip), vehicle: DMSO) was 100 % of control.
